Laboratory results reported in US10125123B2, “Small molecule IRE1-α inhibitors” (Cornell University, priority 2016, dated 2018).

Biological target: T1, IRE1α (Homo sapiens, UniProt O75460)
T1 construct: purchased SignalChem
Experiment: In vitro FRET assay (XBP1 RNA probe cleavage by IRE1α)
Settings: biochemical FRET assay, 2 nM IRE1α
Procedure: In vitro FRET assay was performed to evaluate the ability of select compounds to inhibit IRE1, the results of which are summarized in the following table.
To perform the in vitro FRET assay, 1× complete assay buffer (CAB; […], 50 mM sodium citrate pH 7.15, 1 mM magnesium acetate, 0.02% Tween 20) was used to dilute SignalChem IRE1α in protein to a final concentration of 2 nM. Selected compounds were serially diluted with DMSO in a non-binding black 384-well plate for a total of 15 μl in each well. 2 μl of the serially diluted compound or DMSO control were then added to new wells containing 98 μl of 1×CAB, for a total volume of 100 μl, 10 μl of which were then transferred to wells of a new plate. 5 μl of the diluted IRE1α was then added to each well. 5 μl of a […] XBP1 RNA probe was then added to each well. Fluorescence was then read over 30 minutes in kinetic mode (485/515 nm). Two RNA probes were used, XBP1 wildtype (CAUGUCCGCAGCACAUG; SEQ ID NO: 1) which is able to be spliced by active IRE1α or XBP1 mutant (CAUGUCCCCAGCACAUG; SEQ ID NO: 2) which is unable to be spliced. Each probe contained a 5′ 6-FAM modification and a 3′ IOWA Black FQ modification. […]

T1 sequence (O75460 19-977): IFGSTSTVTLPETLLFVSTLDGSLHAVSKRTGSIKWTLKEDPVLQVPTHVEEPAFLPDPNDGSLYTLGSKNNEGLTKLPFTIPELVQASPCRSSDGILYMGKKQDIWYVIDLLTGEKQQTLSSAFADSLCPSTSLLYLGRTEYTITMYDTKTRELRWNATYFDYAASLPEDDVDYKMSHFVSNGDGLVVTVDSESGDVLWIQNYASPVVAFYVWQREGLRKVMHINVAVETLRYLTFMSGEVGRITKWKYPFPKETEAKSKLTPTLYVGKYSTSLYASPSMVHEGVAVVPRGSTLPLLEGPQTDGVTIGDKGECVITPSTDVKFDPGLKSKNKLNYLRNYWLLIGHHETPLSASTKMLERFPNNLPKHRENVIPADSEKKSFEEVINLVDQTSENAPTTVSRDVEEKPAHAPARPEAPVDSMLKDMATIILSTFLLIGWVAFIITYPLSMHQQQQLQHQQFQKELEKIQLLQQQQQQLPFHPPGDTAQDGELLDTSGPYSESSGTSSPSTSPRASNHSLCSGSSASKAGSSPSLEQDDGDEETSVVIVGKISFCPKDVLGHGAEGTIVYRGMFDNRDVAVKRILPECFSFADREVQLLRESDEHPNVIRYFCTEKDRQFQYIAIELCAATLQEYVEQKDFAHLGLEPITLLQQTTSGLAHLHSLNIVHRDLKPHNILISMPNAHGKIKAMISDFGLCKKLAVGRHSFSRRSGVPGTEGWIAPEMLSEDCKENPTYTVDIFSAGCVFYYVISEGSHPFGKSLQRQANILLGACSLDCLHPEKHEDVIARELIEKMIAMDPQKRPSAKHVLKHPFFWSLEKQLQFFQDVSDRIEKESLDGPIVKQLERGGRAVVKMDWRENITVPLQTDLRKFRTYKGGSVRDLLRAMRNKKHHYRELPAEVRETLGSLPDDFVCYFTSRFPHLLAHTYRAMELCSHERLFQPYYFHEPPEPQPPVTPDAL

| Compound | EC50 [µM] |
| --- | --- |
| Cn1nc(NC(=O)Nc2ccc(CN3CCOCC3)c(C(F)(F)F)c2)cc1-c1ccc2ccncc2c1 [Compound 39, 1-(5-(isoquinolin-7-yl)-1-methyl-1H-pyrazol-3-yl)-3-(4-(morpholinomethyl)-3-(trifluoromethyl)phenyl)urea] | > 100 |
| CCN1CCN(Cc2ccc(NC(=O)Nc3cc(-c4ccc5ccncc5c4)n(C)n3)cc2C(F)(F)F)CC1 [Compound 35, 1-(4-((4-ethylpiperazin-1-yl)methyl)-3-(trifluoromethyl)phenyl)-3-(5-(isoquinolin-7-yl)-1-methyl-1H-pyrazol-3-yl)urea] | ≤ 5 |
| CN1CCN(Cc2ccc(NC(=O)Cc3cc(-c4ccc5ccncc5c4)n(C)n3)cc2C(F)(F)F)CC1 [Compound 31, 2-(5-(isoquinolin-7-yl)-1-methyl-1H-pyrazol-3-yl)-N-(4-((4-methylpiperazin-1-yl)methyl)-3-(trifluoromethyl)phenyl)acetamide] | 5 to 50 |
| CN1CCN(Cc2ccc(NC(=O)Nc3nn(C)c4cc(-c5cnc(N)cn5)ccc34)cc2C(F)(F)F)CC1 [Compound 10, 1-(6-(5-aminopyrazin-2-yl)-1-methyl-1H-indazol-3-yl)-3-(4-((4-methylpiperazin-1-yl)methyl)-3-(trifluoromethyl)phenyl)urea] | 5 to 50 |
| CN1CCN(Cc2ccc(NC(=O)Nc3cc(-c4ccc5ccncc5c4)n(C)n3)c(-c3cnn(C)c3)c2)CC1 [Compound 21, 1-(5-(isoquinolin-7-yl)-1-methyl-1H-pyrazol-3-yl)-3-(2-(1-methyl-1H-pyrazol-4-yl)-4-((4-methylpiperazin-1-yl)methyl)phenyl)urea] | 50 to 100 |
| CN1CCN(Cc2ccc(NC(=O)Nc3cc(-c4cccc5nccnc45)n(C)n3)cc2C(F)(F)F)CC1 [Compound 6] | > 100 |

Further lines, results first:

| EC50 [µM] | Compound |
| --- | --- |
| 5 to 50 | Cc1nc(NC(=O)Nc2ccc(CN3CCN(C)CC3)c(C(F)(F)F)c2)n(C)c1-c1ccc2cc(N)ncc2c1 [Compound 50, 1-(5-(3-aminoisoquinolin-7-yl)-1,4-dimethyl-1H-imidazol-2-yl)-3-(4-((4-methylpiperazin-1-yl)methyl)-3-(trifluoromethyl)phenyl)urea] |
| > 100 | Cn1nc(NS(=O)(=O)c2ccccc2)cc1-c1ccc2cc(N)ncc2c1 [Compound 66, N-(5-(3-aminoisoquinolin-7-yl)-1-methyl-1H-pyrazol-3-yl)benzenesulfonamide] |
| > 100 | CN1CCN(Cc2ccc(C(=O)Nc3cc(-c4ccc5cc(N)ncc5c4)n(C)n3)c3ccccc23)CC1 [Compound 61, N-(5-(3-aminoisoquinolin-7-yl)-1-methyl-1H-pyrazol-3-yl)-4-((4-methylpiperazin-1-yl)methyl)-1-naphthamide] |
| 5 to 50 | CN1CCC(Cc2ccc(NC(=O)Nc3cc(-c4ccc5cc(N)ncc5c4)n(C)n3)cc2C(F)(F)F)CC1 [Compound 48, 1-(5-(3-aminoisoquinolin-7-yl)-1-methyl-1H-pyrazol-3-yl)-3-(4-((1-methylpiperidin-4-yl)methyl)-3-(trifluoromethyl)phenyl)urea] |
| > 100 | O=C(Nc1ccccc1)Nc1ccc2oc(-c3cccnc3)nc2c1 [Compound 56, 1-phenyl-3-(2-(pyridin-3-yl)benzo[d]oxazol-5-yl)urea] |
| 5 to 50 | CN1CCN(Cc2ccc(NC(=O)Nc3cc(-c4ccc(-c5ccc(N)nc5)cc4)[nH]n3)cc2C(F)(F)F)CC1 [Compound 55, 1-(5-(4-(6-aminopyridin-3-yl)phenyl)-1H-pyrazol-3-yl)-3-(4-((4-methylpiperazin-1-yl)methyl)-3-(trifluoromethyl)phenyl)urea] |
| > 100 | Cn1nc(NC(=O)Nc2ccc(CN3CCC(c4ccccc4)CC3)c(C(F)(F)F)c2)cc1-c1ccc2ccncc2c1 [Compound 40, 1-(5-(isoquinolin-7-yl)-1-methyl-1H-pyrazol-3-yl)-3-(4-((4-phenylpiperidin-1-yl)methyl)-3-(trifluoromethyl)phenyl)urea] |
| 5 to 50 | O=C(Nc1cccc(C(F)(F)F)c1)Nc1ccc2oc(-c3cccnc3)nc2c1 [Compound 57, 1-(2-(pyridin-3-yl)benzo[d]oxazol-5-yl)-3-(3-(trifluoromethyl)phenyl)urea] |

Test system: myeloid dendritic cells
Experiment: Lipid accumulation in dendritic cells exposed to ovarian cancer ascites supernatants (BODIPY 493/503 staining, flow cytometry)
Format: cell-based, mouse
Settings: not given

| Compound | pathological intracellular lipid accumulation |
| --- | --- |
| vitamin E | suppressed |

Biological target: IRE1α kinase and endoribonuclease domains (Homo sapiens, UniProt O75460)
Experiment: not given
Settings: cited from earlier work

Sequence of IRE1α kinase and endoribonuclease domains (O75460 19-977): as above

| Compound | inhibition of IRE1α kinase and endoribonuclease domains |
| --- | --- |
| CC(C)n1nc(-c2ccc(NC(=O)Nc3cccc(C(F)(F)F)c3)cc2)c2c(N)ncnc21 [SRC inhibitor, 1-(4-(4-Amino-1-isopropyl-1H-pyrazolo[3,4-d]pyrimidin-3-yl)phenyl)-3-(3-(trifluoromethyl)phenyl)urea] | inhibits |
